# Measured values from patent US9944654B2, “Nargenicin compounds and uses thereof as antibacterial agents” (priority 2014, dated 2018).
# Read-outs that look alike come from different tables or passages of the source.
# Key:
# [1] = target: T1, E. coli DnaE (DNA polymerase III α-subunit from Escherichia coli) (Escherichia coli, UniProt P10443); test: In vitro DnaE single enzyme assay (E. coli); format: biochemical
# T1 construct: EcDnaE (E. coli DnaE residues 1-1160); 6xHis (N); made in house; host or cells: E. coli BL21(DE3)
# Method in brief: (§1)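 3H-dTTP (0.011 mM) incorporation into DNase I-activated calf thymus DNA, alongside the other three dNTPs at 0.025 mM, measured by filter counting after TCA precipitation. Reactions ran 30 min at 30° C., started with purified N-His DnaE: 0.8 μg/ml for E. coli, 0.05 μg/ml for S. aureus.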
# [2] = target: T2, S. aureus DnaE (DNA polymerase III α-subunit homolog from Staphylococcus aureus) (Staphylococcus aureus, UniProt Q5HF71); test: biochemical; format: biochemical
# T2 construct: SaDnaE (S. aureus DnaE residues 1-1065); 6xHis (N); made in house; host or cells: E. coli BL21-AI
# T2 sequence (Q5HF71 1-1065): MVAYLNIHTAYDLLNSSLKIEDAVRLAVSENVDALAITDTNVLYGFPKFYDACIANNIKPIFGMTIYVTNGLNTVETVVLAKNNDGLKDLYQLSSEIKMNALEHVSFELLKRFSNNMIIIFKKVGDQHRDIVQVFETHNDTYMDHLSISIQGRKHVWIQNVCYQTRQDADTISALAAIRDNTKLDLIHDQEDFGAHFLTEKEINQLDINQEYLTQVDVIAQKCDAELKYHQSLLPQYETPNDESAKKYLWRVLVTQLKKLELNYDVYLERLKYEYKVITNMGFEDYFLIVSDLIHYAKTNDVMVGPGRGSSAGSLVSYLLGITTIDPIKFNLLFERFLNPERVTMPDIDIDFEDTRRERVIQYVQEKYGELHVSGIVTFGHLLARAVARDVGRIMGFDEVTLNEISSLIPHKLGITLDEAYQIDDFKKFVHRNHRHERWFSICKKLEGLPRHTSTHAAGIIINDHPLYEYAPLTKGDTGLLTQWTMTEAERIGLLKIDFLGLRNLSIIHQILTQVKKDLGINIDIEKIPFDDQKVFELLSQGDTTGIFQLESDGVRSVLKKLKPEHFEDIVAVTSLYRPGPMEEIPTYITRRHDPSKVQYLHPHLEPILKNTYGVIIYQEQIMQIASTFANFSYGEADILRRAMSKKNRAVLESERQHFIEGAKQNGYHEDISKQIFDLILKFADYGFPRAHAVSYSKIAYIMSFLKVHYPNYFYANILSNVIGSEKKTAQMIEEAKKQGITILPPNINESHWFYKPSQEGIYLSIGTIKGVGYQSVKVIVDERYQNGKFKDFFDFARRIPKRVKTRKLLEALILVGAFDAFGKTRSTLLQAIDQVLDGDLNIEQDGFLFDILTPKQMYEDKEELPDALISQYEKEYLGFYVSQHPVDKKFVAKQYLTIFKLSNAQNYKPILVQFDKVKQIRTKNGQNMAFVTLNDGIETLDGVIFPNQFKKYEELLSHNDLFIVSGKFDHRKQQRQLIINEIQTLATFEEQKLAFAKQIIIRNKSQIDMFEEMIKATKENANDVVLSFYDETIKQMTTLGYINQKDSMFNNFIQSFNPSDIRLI
# Method in brief: as §1
# [3] = test system: Escherichia coli MB5747 (LS 883, tolC); test: microbe, parasite or virus in culture; format: cell-based; settings: * = some reduction of growth versus control at […]; for MIC: Escherichia coli, read-out: E. coli LS883 tolC (MIC), MHII broth
# [4] = test system: Pseudomonas aeruginosa MB5890 (CB1101, efflux-deleted); test: microbe, parasite or virus in culture; format: cell-based; settings: * = some reduction of growth versus control at […]; for MIC: Pseudomonas aeruginosa, read-out: P. aeruginosa MB5890 efflux-del (MIC), MHII broth
# [5] = test system: Staphylococcus aureus MB6266 (MRSA COL); test: Nargenicin antibacterial assay (MIC), S. aureus; format: cell-based; settings: * = some reduction of growth versus control at […]; for MIC: Staphylococcus aureus, MRSA, read-out: S. aureus COL (MIC), MHII broth + 50% human serum
# [6] = test system: Streptococcus pneumoniae MB6357 (CL 2883); test: Nargenicin antibacterial assay (MIC), S. pneumoniae; format: cell-based; settings: * = some reduction of growth versus control at […]; for MIC: Streptococcus pneumoniae, read-out: S. pneumoniae MB2883 (MIC), Isosensitest broth
# [7] = read-out: E. coli DnaE IC50 (converted)
# [8] = read-out: S. aureus DnaE IC50 (converted)
# T1 sequence (P10443 whole entry, the tested form may be a part): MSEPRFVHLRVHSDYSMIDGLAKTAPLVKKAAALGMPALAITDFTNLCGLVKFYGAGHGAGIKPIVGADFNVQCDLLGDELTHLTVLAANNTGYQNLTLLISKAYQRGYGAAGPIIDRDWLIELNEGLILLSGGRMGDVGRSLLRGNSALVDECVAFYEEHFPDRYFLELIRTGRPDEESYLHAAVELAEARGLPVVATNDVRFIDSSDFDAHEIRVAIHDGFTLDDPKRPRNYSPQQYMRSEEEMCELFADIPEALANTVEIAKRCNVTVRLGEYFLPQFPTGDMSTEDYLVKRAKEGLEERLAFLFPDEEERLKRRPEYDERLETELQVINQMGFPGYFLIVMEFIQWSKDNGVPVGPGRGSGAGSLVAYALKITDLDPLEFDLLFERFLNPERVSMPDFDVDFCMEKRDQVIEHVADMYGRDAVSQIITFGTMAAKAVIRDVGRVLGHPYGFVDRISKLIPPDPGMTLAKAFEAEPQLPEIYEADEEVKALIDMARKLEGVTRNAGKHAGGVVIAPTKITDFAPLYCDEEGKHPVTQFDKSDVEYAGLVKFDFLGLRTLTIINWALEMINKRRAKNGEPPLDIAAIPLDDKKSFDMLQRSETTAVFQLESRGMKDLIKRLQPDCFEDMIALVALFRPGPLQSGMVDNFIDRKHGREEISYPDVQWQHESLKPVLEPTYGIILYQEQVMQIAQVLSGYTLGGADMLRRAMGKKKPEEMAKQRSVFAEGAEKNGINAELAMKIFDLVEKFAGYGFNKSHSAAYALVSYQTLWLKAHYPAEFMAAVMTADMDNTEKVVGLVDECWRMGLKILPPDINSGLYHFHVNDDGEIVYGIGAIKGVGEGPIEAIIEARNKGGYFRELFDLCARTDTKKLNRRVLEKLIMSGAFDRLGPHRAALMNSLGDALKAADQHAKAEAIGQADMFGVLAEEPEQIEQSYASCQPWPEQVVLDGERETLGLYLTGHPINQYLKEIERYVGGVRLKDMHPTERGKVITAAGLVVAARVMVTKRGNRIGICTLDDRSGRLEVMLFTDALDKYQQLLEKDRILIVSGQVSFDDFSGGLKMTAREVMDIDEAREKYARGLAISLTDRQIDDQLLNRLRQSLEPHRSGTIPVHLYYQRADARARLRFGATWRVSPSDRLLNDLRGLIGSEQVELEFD
SMILES,E. coli DnaE IC50 [1],S. aureus DnaE IC50 [2],E. coli LS883 tolC (MIC) ([3]; MHII broth),P. aeruginosa MB5890 efflux-del (MIC) ([4]; MHII broth),S. aureus COL (MIC) ([5]; MHII broth + 50% human serum),S. pneumoniae MB2883 (MIC) ([6]; Isosensitest broth),"IC50 [1, 7]",IC50 ([2]; S. aureus DnaE IC50),MIC [3],MIC [4],MIC [5],MIC [6],IC50 ([1]; E. coli DnaE IC50),"IC50 [2, 8]"
CO[C@H]1C[C@H]2C=CC3C4[C@H](O)[C@@H](C)[C@@H](OC(=O)c5ccc[nH]5)[C@@H]3O[C@]42/C(C)=C/[C@@H](C)[C@@H]([C@@H](C)OC(=O)C(=O)NCc2ccccc2CN(C)C)OC1=O [Example 141],1 µg/mL,<0.006 µg/mL,0.25 µg/mL,4 µg/mL,0.25 µg/mL,>128* μg/mL,,,,,,,,
"CO[C@H]1CC2C=C[C@H]3[C@H]4O[C@]2(/C(C)=C/[C@@H](C)[C@@H](C(C)O)OC1=O)[C@@H]3[C@H](O)[C@@H](C)[C@H]4OC(=O)c1ccc[nH]1 (stereo partly drawn) [Example 145, Nargenicin A1, reference compound]",,,,,,,1.75 µM,< 0.0116 µM,0.25 µg/mL,4 µg/mL,0.25 µg/mL,> 128 µg/mL,,
"CO[C@H]1C[C@H]2C=C[C@H]3[C@H]4O[C@]2(/C(C)=C/[C@@H](C)[C@@H]([C@@H](C)O)OC1=O)[C@@H]3C(=O)[C@@H](C)[C@H]4OC(=O)c1ccc[nH]1 [Example 146, (3R,4S,7S,8aS,10aR,11R,12R,13S,14aR,14bS,E)-4-((R)-1-hydroxyethyl)-7-methoxy-1,3,13-trimethyl-6,14-dioxo-3,4,6,7,8,8a,10a,11,12,13,14,14a-dodecahydro-11,14b-epoxynaphtho[2,1-e]oxecin-12-yl 1H-pyrrole-2-carboxylate]",,,,,,,> 195 µM,1.17 µM,128 µg/mL,> 128 µg/mL,> 128 µg/mL,128 µg/mL,,
CO[C@H]1C[C@H]2C=C[C@@H]3[C@H]4[C@H](O)[C@@H](C)C(n5ccnc5)[C@@H]3O[C@]42/C(C)=C/[C@@H](C)[C@@H]([C@@H](C)O)OC1=O (stereo partly drawn) [Example 149],,,,,,,,23.3 µM,32 µg/mL,128 µg/mL,> 128 µg/mL,> 128 µg/mL,> 212 µM,
"C=CC[C@H]1[C@@H]2O[C@@]34/C(C)=C/[C@@H](C)[C@@H]([C@@H](C)O)OC(=O)[C@@H](OC)C[C@H]3C=C[C@@H]2[C@H]4C(=O)[C@@H]1C [Example 150, (3R,4S,7S,8aS,10aR,11S,12R,13R,14aR,14bS,E)-12-allyl-4-((R)-1-hydroxyethyl)-7-methoxy-1,3,13-trimethyl-3,4,8,8a,10a,11,12,13-octahydro-11,14b-epoxynaphtho[2,1-e]oxecine-6,14(7H,14aH)-dion]",,,,,,,,,> 64 µg/mL,> 64 µg/mL,> 64 µg/mL,64 µg/mL,> 112 µM,5.62 µM
"CO[C@H]1C[C@H]2C=C[C@H]3[C@H]4O[C@]2(/C(C)=C/[C@@H](C)[C@@H]([C@@H](C)O)OC1=O)[C@@H]3[C@H](O)[C@@H](C)[C@@H]4N [Example 151, (3R,4S,7S,8aS,10aR,11R,12S,13S,14R,14aS,14bS,E)-12-amino-14-hydroxy-4-((R)-1-hydroxyethyl)-7-methoxy-1,3,13-trimethyl-3,4,8,8a,10a,11,12,13,14,14 a-decahydro-11,14b-epoxynaphtho [2,1-e]oxecin-6(7H)-one]",,,,,,,,4.98 µM,> 128 µg/mL,> 128 µg/mL,> 128 µg/mL,> 128 µg/mL,> 237 µM,
CO[C@H]1C[C@H]2C=C[C@H]3[C@H]4O[C@]2(/C(C)=C/[C@@H](C)[C@@H]([C@@H](C)O)OC1=O)[C@@H]3[C@H](O)C(C)[C@@H]4NCc1cccs1.O=C(O)C(F)(F)F (stereo partly drawn) [Example 153],,,,,,,,,> 128 µg/mL,> 128 µg/mL,> 128 µg/mL,> 128 µg/mL,> 158 µM,47.5 µM
CO[C@H]1C[C@H]2C=C[C@H]3[C@H]4O[C@]2(/C(C)=C/[C@@H](C)[C@@H]([C@@H](C)O)OC1=O)[C@@H]3[C@H](O)C(C)[C@@H]4NCc1ccncc1.O=C(O)C(F)(F)F (stereo partly drawn) [Example 154],,,,,,,,,> 128 µg/mL,> 128 µg/mL,> 128 µg/mL,> 128 µg/mL,> 160 µM,112 µM
